Laboratory results from ChEMBL document CHEMBL4316582, “Nitro-Group-Containing Drugs” (J Med Chem, 2019).

What was measured:
[1] = Tmax in mouse at 10 mg/kg; type: ADME, organism-based; conditions: in vivo
[2] = Cmax in mouse at 10 mg/kg; type: ADME, organism-based; parameters: dose 10 mg/kg; conditions: in vivo
[3] = system: NCI-H460; test: Cytotoxicity against human NCI-H460 cells assessed as reduction in cell viability after 2 hrs under hypoxic conditions by Alamar blue assay; type: functional, cell-based; conditions: NCI-H460, 2 h
[4] = Clearance in mouse at 10 mg/kg; type: ADME, organism-based; conditions: in vivo
[5] = Half life in mouse at 10 mg/kg; type: ADME, organism-based; conditions: in vivo
[6] = system: NCI-H460; test: Cytotoxicity against human NCI-H460 cells assessed as reduction in cell viability after 2 hrs under normoxic conditions by Alamar blue assay; type: functional, cell-based; conditions: NCI-H460, 2 h
[7] = system: HeLa; test: Cytotoxicity against human HeLa cells assessed as reduction in cell viability after 2 hrs in presence of LY2603618 by Alamar blue assay; type: functional, cell-based
[8] = system: NCI-H460; test: Cytotoxicity against human NCI-H460 cells assessed as reduction in cell viability after 2 hrs in presence of PF477736 by Alamar blue assay; type: functional, cell-based; conditions: NCI-H460, 2 h
[9] = system: NCI-H460; test: Cytotoxicity against human NCI-H460 cells assessed as reduction in cell viability after 2 hrs in presence of LY2603618 by Alamar blue assay; type: functional, cell-based; conditions: NCI-H460, 2 h
[10] = system: HT-29; test: Cytotoxicity against human HT-29 cells assessed as reduction in cell viability after 2 hrs in presence of LY2603618 by Alamar blue assay; type: functional, cell-based; conditions: HT-29, 2 h
[11] = system: HT-29; test: Cytotoxicity against human HT-29 cells assessed as reduction in cell viability after 2 hrs in presence of AZD7765 by Alamar blue assay; type: functional, cell-based; conditions: HT-29, 2 h
[12] = system: NCI-H460; test: Cytotoxicity against human NCI-H460 cells assessed as reduction in cell viability after 2 hrs in presence of AZD7765 by Alamar blue assay; type: functional, cell-based; conditions: NCI-H460, 2 h
[13] = system: HeLa; test: Cytotoxicity against human HeLa cells assessed as reduction in cell viability after 2 hrs in presence of AZD7765 by Alamar blue assay; type: functional, cell-based
[14] = system: DU-145; test: Cytotoxicity against human DU145 cells assessed as reduction in cell viability after 2 hrs in presence of AZD7765 by Alamar blue assay; type: functional, cell-based; conditions: DU-145, 2 h
[15] = system: HT-29; test: Cytotoxicity against human HT-29 cells assessed as reduction in cell viability after 2 hrs in presence of PF477736 by Alamar blue assay; type: functional, cell-based; conditions: HT-29, 2 h

| SMILES | Tmax [1] [min] | Cmax [2] [µg/mL] | IC50 [3] [µM] | clearance [4] [L/h/kg] | half-life [5] [min] | IC50 [6] [mM] | IC50 [7] [mM] | IC50 [8] [mM] | IC50 [9] [mM] | IC50 [10] [mM] | IC50 [11] [mM] | IC50 [12] [mM] | IC50 [13] [mM] | IC50 [14] [mM] | IC50 [15] [mM] |
| --- | --- | --- | --- | --- | --- | --- | --- | --- | --- | --- | --- | --- | --- | --- | --- |
| COc1cccc2c1C(=O)c1c(O)c3c(c(O)c1C2=O)C[C@@](O)(C(C)=O)C[C@@H]3O[C@H]1C[C@H](NCOCCn2ccnc2[N+](=O)[O-])[C@H](O)[C@H](C)O1 | 5 | 1.82 | 0.023 | 11.3 | 28.8 | 0.0098 | – | – | – | – | – | – | – | – | – |
| Cn1c(COP(=O)(NCCCl)NCCCl)cnc1[N+](=O)[O-] | – | – | – | – | – | – | 90 | 19 | 22 | 46 | 39 | 25 | 95 | 80 | 57 |
